Source: PMC10802969, “Host-defense piscidin peptides as antibiotic adjuvants against Clostridioides difficile” (PLOS ONE, 2024)
Values joined by “and” are separate entries in the source; they are usually repeats but may differ in a detail not shown here. Equal values may be shown once. Read-outs that look alike come from different tables or passages of the source.

Legend:
C. difficile R20291 [1] = conditions: previously observed / recorded values, ref 76 (vancomycin, fidaxomicin), ref 10 (metronidazole), cited from earlier work
[2] = test system: C. difficile R20291 vegetative cells; test: Enumeration of colony forming units after overnight exposure; format: cell-based, Clostridioides difficile; conditions: sub-lethal piscidins (2 μM p1/p1-Cu2+ or 4 μM p3/p3-Cu2+) with sub-lethal antibiotic, 16 h exposure
Protocol: 200 μL samples of BHIS broth containing the indicated concentrations of antibiotics and/or piscidins were inoculated using a 1:10 ratio, in 96 well plates, with exponentially growing C. difficile R20291 cells and incubated for 16 h at 37°C. Samples were spread as duplicates on BHIS agar plates containing 20 μg/mL erythromycin. These plates were incubated anaerobically at 37°C for 48 h before the viable colonies were counted.

C. difficile R20291 [3] = test: Growth inhibition assay (16 h overnight growth, culture density at 630 nm); format: cell-based, Clostridioides difficile; conditions: for Concentration of antibiotic necessary to suppress 16-hour growth of C. difficile: >=90% inhibition of overnight growth vs untreated, R20291, anaerobic 37°C, n>=3
Protocol: Two-fold serial dilutions of BHIS media containing the indicated concentrations of antibiotics were prepared in sterile 96 well plates (ThermoFisher Scientific). […] Inoculated plates were incubated anaerobically at 37°C for 16 h and then removed from the chamber. […] All experiments were performed with a minimum of three samples, and the means and standard deviations were reported. To analyze the effects of the antibiotics, samples containing peptides and antibiotics were compared to samples containing only peptides by two-way analysis of variance using GraphPad Prism 6.

C. difficile cells [4] = test: Transmission electron microscopy of cell envelope damage and lysis; format: cell-based, Clostridioides difficile; conditions: 5 min treatment, TEM
Protocol: Overnight cultures were prepared by inoculating individual colonies into 3 mL BHIS broth and grown for 14–16 h at 37°C in the anaerobic chamber. The overnight cultures were diluted 1:20 into 4 mL BHIS broth and the cultures were grown until they reached exponential phase (OD600 0.4–0.6). […] After treatment, the samples were transferred to 2 mL Eppendorf tubes and centrifuged for 2 minutes to collect the pellets. The pellets were individually suspended in 1 mL of 1X phosphate-buffered saline solution with 4% paraformaldehyde, prepared as described in [75]. The samples were fixed in the anaerobic chamber for 45 min. After fixation, the eppendorf tubes were removed from the chamber and the exteriors were sterilized with SporGon (Thomas Scientific), 10% bleach, and 70% ethanol (VWR). Samples were incubated on 200 mesh formvar-coated copper grids (Electron Microscopy Sciences, Hatfield, PA) that were glow-discharged. Grids were washed with water, incubated with 2% uranyl acetate, washed with water, dried overnight at room temperature, and imaged using a JEM-2100F TEM (JEOL, Akishima, Japan) at a voltage of 200 kV and using a Gatan OneView camera. The percentage of lysed cells in each condition and the standard error of each condition were compared using the Wilson confidence interval.

C. difficile cells [5] = test: Propidium iodide uptake assay (live cell microscopy); format: cell-based, Clostridioides difficile; conditions: 20 μg/mL PI; 4 μM p1/p1Cu, 8 μM p3/p3Cu; apo 30 min, metalated 10 min; anaerobic 37°C; qualitative microscopy
Protocol: Samples containing apo-peptides and metalated peptides were incubated for 30 min and 10 min, respectively. After incubation, cells were centrifuged at 704 rfc for 5 minutes and resuspended in 1.5 mL fresh BHIS broth. Negative controls were incubated with PI for 10 or 30 minutes but contained no piscidin. Positive controls were removed from the anaerobic chamber and incubated aerobically for 1 h at room temperature with propidium iodine and 50% ethanol. Within the anaerobic chamber, samples were injected into rose chambers for microscopic imaging as detailed in [53]. The rose chambers were removed from the anaerobic chamber and the outsides were sterilized with 70% ethanol and 10% bleach. […] Samples were imaged with time-lapse differential interference contrast (DIC) microscopy and propidium iodide was monitored at excitation/emission wavelengths of 535/617 nm.

[6] = test system: C. difficile R20291 spores; test: Spore viability assay; format: cell-based, Clostridioides difficile; conditions: 16 h, 37°C; for Viable colonies from spores after peptide exposure (spore data): spores in PBS, plated with 0.1% taurocholic acid, individual samples, S6 File; for Viability of dormant C. difficile spores: peptide at or above the concentrations necessary to kill vegetative cells (4/8 μM p1, 8/15 μM p3)
Protocol: To isolate spores, exponentially growing C. difficile R20291 was inoculated 1:10 into 50 mL of BHIS broth and grown anaerobically at 37°C for 16 h. This culture was removed from anaerobic chamber and ethanol was added to a final concentration of 50%. The sample was rocked aerobically for 6 h. The absence of viable vegetative cells was confirmed by spreading volumes up to 1 mL on BHIS plates and incubating anaerobically for 48 h. […] Peptides were tested at final concentrations corresponding to 1X and 2X their previously observed inhibitory concentrations. All the samples were incubated in the chamber at 37°C for 16 hrs. After incubation, 50 μL aliquots of each sample were plated in triplicate on BHIS plates containing 20 μg/mL erythromycin and 0.1% taurocholic acid agar plates to induce germination. An additional 50 μL aliquot was plated on BHIS containing 20 μg/mL erythromycin to ensure that there was no contamination with vegetative cells. The plates were incubated in the chamber at 37°C for 48 h before the viable colonies were counted.

C. difficile = conditions: in vitro, anaerobic; cited from earlier work
Text: These antibiotics target different cellular components, providing us with a way to identify whether increased efficacy relies on specific mechanistic aspects of the antibiotics and peptides. We tested this by inoculating C. difficile R20291 into media co ...

[7] = with 2 μM p1 and 4 μM p3 combined
[8] = 0.5 μg/mL vancomycin, 4 μM p1-Cu2+, or both

| Compound | Concentration of antibiotic necessary to suppress 16-hour growth of C. difficile, no peptide (C. difficile R20291 [1]) [µg/mL] | Number of viable cells after co-treatment [2] | Concentration of antibiotic necessary to suppress 16-hour growth of C. difficile (C. difficile R20291 [3]; with 2 μM p1) [µg/mL] | Concentration of antibiotic necessary to suppress 16-hour growth of C. difficile (C. difficile R20291 [3]; with 2 μM p1Cu) [µg/mL] | Concentration of antibiotic necessary to suppress 16-hour growth of C. difficile (C. difficile R20291 [3]; [7]) [µg/mL] | Concentration of antibiotic necessary to suppress 16-hour growth of C. difficile (C. difficile R20291 [3]; with 4 μM p3) [µg/mL] | Concentration of antibiotic necessary to suppress 16-hour growth of C. difficile (C. difficile R20291 [3]; with 4 μM p3Cu) [µg/mL] | Propidium iodide uptake by live C. difficile cells (C. difficile cells [5]) | Viable colonies from spores after peptide exposure (spore data) ([6]; 1X MIC (4 μM p1, 8 μM p3)) | Viable colonies from spores after peptide exposure (spore data) ([6]; 2X MIC (8 μM p1, 15 μM p3)) | Viability of dormant C. difficile spores [6] | Concentration that inhibits growth and kills exponentially growing C. difficile (C. difficile) [µM] | further results |
| --- | --- | --- | --- | --- | --- | --- | --- | --- | --- | --- | --- | --- | --- |
| O=C(O)c1cn(C2CC2)c2cc(N3CCNCC3)c(F)cc2c1=O [Ciprofloxacin, ciprofloxacin] | > 128 |  |  |  |  |  |  |  |  |  |  |  |  |
| CCc1c(Cl)c(O)c(Cl)c(O)c1C(=O)O[C@H]1[C@H](O)[C@H](OC)[C@H](OC/C2=C\C=C\C[C@H](O)/C(C)=C/[C@H](CC)[C@@H](O[C@@H]3OC(C)(C)[C@@H](OC(=O)C(C)C)[C@H](O)[C@@H]3O)/C(C)=C/C(C)=C/C[C@@H]([C@@H](C)O)OC2=O)O[C@@H]1C [Fidaxomicin, fidaxomicin] | 0.256 | further reduced the number of viable cells | 0.0500 | 0.0125 | 0.00625 | 0.050 | >0.100 |  |  |  |  |  | Fold improvement of effective antibiotic concentration (C. difficile R20291 [3]; with 2 μM p1-Cu2+ vs no peptide): 20 fold; Concentration of antibiotic necessary to suppress 16-hour growth of C. difficile (C. difficile R20291 [3]; with 2 μM p1, listed as fidaxomicin): 0.05 µg/mL; Fold improvement of effective antibiotic concentration (C. difficile R20291 [3]; with 2 μM p1 and 4 μM p3 combined vs no peptide): 40 fold; Fold improvement of effective antibiotic concentration (C. difficile R20291 [3]; with 2 μM p1 vs no peptide): 5 fold; Concentration of antibiotic necessary to suppress 16-hour growth of C. difficile (C. difficile R20291 [3]; with 4 μM p3Cu, listed as fidaxomicin): > 0.1 µg/mL |
| Cc1ncc([N+](=O)[O-])n1CCO [Metronidazole, metronidazole] | 2.000 | further reduced the number of viable cells | 0.500 | 1.0000 |  | 0.0625 | 1.000 |  |  |  |  |  | Concentration of antibiotic necessary to suppress 16-hour growth of C. difficile, no peptide (C. difficile R20291 [1]; listed as metronidazole): 2 µg/mL; Concentration of antibiotic necessary to suppress 16-hour growth of C. difficile (C. difficile R20291 [3]; with 2 μM p1, listed as metronidazole): 0.5 µg/mL; Concentration of antibiotic necessary to suppress 16-hour growth of C. difficile (C. difficile R20291 [3]; with 2 μM p1Cu, listed as metronidazole): 1 µg/mL; Concentration of antibiotic necessary to suppress 16-hour growth of C. difficile (C. difficile R20291 [3]; with 4 μM p3Cu, listed as metronidazole): 1 µg/mL |
| CN[C@H](CC(C)C)C(=O)N[C@H]1C(=O)N[C@@H](CC(N)=O)C(=O)N[C@H]2C(=O)N[C@H]3C(=O)N[C@H](C(=O)N[C@H](C(=O)O)c4cc(O)cc(O)c4-c4cc3ccc4O)[C@H](O)c3ccc(c(Cl)c3)Oc3cc2cc(c3O[C@@H]2O[C@H](CO)[C@@H](O)[C@H](O)[C@H]2O[C@H]2C[C@](C)(N)[C@H](O)[C@H](C)O2)Oc2ccc(cc2Cl)[C@H]1O [Vancomycin, vancomycin] | 4.000 | further reduced the number of viable cells | 2.000 | 0.0625 | 0.125 | 0.500 | 0.250 |  |  |  |  |  | Concentration of antibiotic necessary to suppress 16-hour growth of C. difficile, no peptide (C. difficile R20291 [1]; listed as vancomycin): 4 µg/mL; Concentration of antibiotic necessary to suppress 16-hour growth of C. difficile (C. difficile R20291 [3]; with 2 μM p1, listed as vancomycin): 2 µg/mL; Concentration of antibiotic necessary to suppress 16-hour growth of C. difficile (C. difficile R20291 [3]; with 4 μM p3, listed as vancomycin): 0.5 µg/mL; Concentration of antibiotic necessary to suppress 16-hour growth of C. difficile (C. difficile R20291 [3]; with 4 μM p3Cu, listed as vancomycin): 0.25 µg/mL; Number of cells with cytoplasm / membrane leakage (C. difficile cells [4]; 0.5 μg/mL vancomycin (22 cells observed) or 4 μM p1-Cu2+ (14 cells observed)): 8; Number of lysed cells (severe to complete cell lysis) (C. difficile cells [4]; 0.5 μg/mL vancomycin (of 22 cells), 4 μM p1-Cu2+ (of 14), both (of 19)): 0; Proportion of lysed cells ("percentage") (C. difficile cells [4]; [8]): 0; Wilson estimate of proportion of lysed cells (C. difficile cells [4]; [8]): 0.07692 |
| Piscidin 1 [p1] |  |  |  |  |  |  |  | did not visibly increase PI uptake | 10100 and 12400 and 9560 and 8440 and 7400 and 9040 | 9320 and 11000 and 9200 and 8240 and 10000 and 9120 | do not affect the viability | 4 |  |
| Piscidin 3 [p3] |  |  |  |  |  |  |  | did not visibly increase PI uptake | 8760 and 8840 and 10100 and 7960 and 8080 and 8480 | 8120 and 7200 and 9000 and 8280 and 10200 and 11400 | do not affect the viability | 8 |  |
